Eleven compounds from ChEMBL document CHEMBL1128117, “Dibenzobicyclo[2.2.2.]octane angiotensin II receptor antagonists” (Bioorg Med Chem Lett, 1995) can be followed below.

Some results are limits rather than exact numbers.

For one assay, the system named is Rattus norvegicus. Description: Dose required to lower the blood pressure by 30 mm Hg on intravenous administration in the renal hypertensive rat; orally inactive. The assay is classed as functional.
`CCCCc1nc(Cl)c(C=O)n1Cc1ccc2c(c1)C1c3ccccc3C2C(c2nn[nH]n2)C1c1nn[nH]n1` (stereo not drawn) registered an ED30 of 0.115 mg/kg.

`CCCCc1nc(Sc2ccccc2)c(C=O)n1Cc1ccc2c(c1)C1c3ccccc3C2C(c2nn[nH]n2)C1c1nn[nH]n1` (stereo not drawn) came in with an ED30 of 0.2 mg/kg.

Another assay addresses T1, Angiotensin II receptor (Homo sapiens, UniProt P30556+P50052).
T1 sequence (P30556 whole entry): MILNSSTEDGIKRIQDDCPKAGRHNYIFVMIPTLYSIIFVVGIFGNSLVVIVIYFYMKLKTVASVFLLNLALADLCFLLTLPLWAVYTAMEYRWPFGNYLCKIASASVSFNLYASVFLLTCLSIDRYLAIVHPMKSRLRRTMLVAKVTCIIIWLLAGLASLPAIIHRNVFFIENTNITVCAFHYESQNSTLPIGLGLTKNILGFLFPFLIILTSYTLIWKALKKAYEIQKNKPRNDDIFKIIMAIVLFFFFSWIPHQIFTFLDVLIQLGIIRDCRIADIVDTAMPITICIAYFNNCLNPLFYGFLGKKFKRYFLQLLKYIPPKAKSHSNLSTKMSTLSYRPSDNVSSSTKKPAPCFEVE
T1 sequence (P50052 whole entry): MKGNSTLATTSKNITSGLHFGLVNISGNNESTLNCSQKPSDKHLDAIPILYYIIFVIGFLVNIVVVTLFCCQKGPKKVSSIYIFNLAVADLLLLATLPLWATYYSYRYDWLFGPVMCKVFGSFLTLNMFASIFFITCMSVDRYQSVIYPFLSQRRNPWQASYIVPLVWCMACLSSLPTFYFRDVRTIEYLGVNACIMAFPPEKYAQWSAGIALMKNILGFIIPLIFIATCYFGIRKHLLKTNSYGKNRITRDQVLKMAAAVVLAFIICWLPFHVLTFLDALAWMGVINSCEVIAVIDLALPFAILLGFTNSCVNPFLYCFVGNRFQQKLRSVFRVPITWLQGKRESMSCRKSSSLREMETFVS
Nature of the assay: Inhibitory activity against Angiotensin II receptor was determined. The assay is classed as protein assay.
As for `CCCCc1nc(Cl)c(COC)n1Cc1ccc(N2C(=O)C3(C)CC(C)(C(=O)O)CC(C)(C3)C2=O)cc1` (stereo not drawn), the IC50 is > 10000 nM.

The next assay concerns Rattus norvegicus. Description: Dose required to lower the blood pressure by 30 mm Hg on intravenous administration in the renal hypertensive rat was determined. The assay is classed as functional.
The compound `CCCCc1nc(Cl)c(CO)n1Cc1ccc(-c2ccccc2-c2nnn[nH]2)cc1` [LOSARTAN] gave an ED30 of 0.8 mg/kg.

Another assay has as its target T1, Angiotensin II receptor. Description: Inhibitory activity against Angiotensin II receptor. The assay is classed as protein assay.
Compound `CCCCc1nc(Cl)c(C=O)n1Cc1ccc2c(c1)C(C(=O)O)c1ccccc1-2` (stereo not drawn) registered an IC50 of 3600 nM.

`CCCCc1nc(Cl)c(C=O)n1Cc1ccc2c(c1)C1c3ccccc3C2C(C(=O)O)C1C(=O)O` (stereo in doubt; 3) yielded a 50% inhibitory concentration (IC50) of 1100 nM.

For `CCCCc1nc(Cl)c(C=O)n1Cc1ccc2c(c1)C1c3ccccc3C2C(C(=O)O)C1C(=O)O` (stereo in doubt; 5), the IC50 stood at 220 nM.

Turning to `CCCCc1nc(Cl)c(C=O)n1Cc1ccc2c(c1)C(Cc1nn[nH]n1)c1ccccc1-2` (stereo not drawn), the IC50 worked out at 5000 nM.

The compound `CCCCc1nc(Cl)c(C=O)n1Cc1ccc2c(c1)C1c3ccccc3C2C(C(=O)O)C1C(=O)O` (single isomer, unassigned) displayed an IC50 of 320 nM.

With `CCCCc1nc(Cl)c(C=O)n1Cc1ccc2c(c1)C1c3ccccc3C2C(c2nn[nH]n2)C1c1nn[nH]n1` (stereo not drawn), the IC50 was found to be 90 nM.

For the compound `CCCCc1nc(Cl)c(C=O)n1Cc1ccc2c(c1)C(O)(C(=O)O)c1ccccc1-2` (stereo not drawn), the IC50 was > 10000 nM.

For the compound `CCCCc1nc(Sc2ccccc2)c(C=O)n1Cc1ccc2c(c1)C1c3ccccc3C2C(c2nn[nH]n2)C1c1nn[nH]n1` (stereo not drawn), the IC50 amounted to 460 nM.

`CCCCc1nc(Cl)c(C=O)n1Cc1ccc2c(c1)C1c3ccccc3C2C(C(=O)O)C1C(=O)O` (stereo in doubt) had an IC50 of 1100 nM.

For orientation: IC50 means the concentration that gives 50% inhibition. A lower IC50 goes with higher potency.
